Data reported in PMC5444710, “Enhancement of radiosensitivity by the novel anticancer quinolone derivative vosaroxin in preclinical glioblastoma models” (Oncotarget, 2017).
Where a SMILES comes first, the peptide text is derived from it. The star is where a group is joined. Cbz = O=C(OCc1ccccc1)*; CH2F = FC*

What was measured:
[1] = test system: luciferase-transfected U251 cells; assay: Orthotopic intra-brain model (DFS, OS)
[2] = test system: U87MG xenografts; assay: Subcutaneous xenograft model: tumor weight and time to progression; type: in vivo, female CD1-nu/nu mice; settings: U87MG xenografts; day 35; VSR 10 mg/kg q 5 d for 5 wk IV; TMZ 16 mg/kg 5 consecutive days; RT single 4 Gy
Method: (§1) Female CD1-nu/nu mice, at 6 weeks of age, were purchased from Charles River (Milan, Italy) under the guidelines established by our institution (University of L’Aquila, Medical School and Science and Technology School Board Regulations, complying with Italian government regulation n.116, January 27, 1992, for the use of laboratory animals). All mice received subcutaneous flank injections (2 each) of 1 × 10^6 U251, U87MG, and T98G cells representing models for MGMT-negative and MGMT-positive cells. Tumor growth was assessed biweekly by measuring tumor diameters with a Vernier caliper (length × width). Tumor weight was calculated according to the formula tumor weight (mg) = tumor volume (mm^3) = d2 × D/2, where d and D are the shortest and longest diameters, respectively. The effects of the treatments were assessed as previously described. At about 10 days after the tumor injection, 30 mice with tumor volumes of 0.5–0.8 cm^3 were randomly divided into 6 groups (5 mice per group with 2 tumors each): (1) control (vehicle); (2) vosaroxin (10 mg/kg every 5 days for 5 weeks intravenous [IV] injection into tail vein; (3) radiotherapy (RT; 4 Gy delivered in a single fraction); (4) vosaroxin in combination with RT; (5) temozolomide (16 mg/kg 5 consecutive days) and (6) temozolomide in combination with RT. Anesthetized tumor-bearing mice received focal irradiation. Irradiation was delivered using an x-ray linear accelerator at a dose rate of 200 cGy/min at room temperature. All mice were shielded with a specially designed lead apparatus to allow irradiation to the right hind limb. At the end of the study (35 days after the start of treatments), animals were sacrificed by carbon dioxide inhalation and tumors were then removed surgically. Half of the tumor was directly frozen in liquid nitrogen for protein analysis and the other half was fixed in paraformaldehyde overnight for immunohistochemical analyses.
(§2) The following parameters were used to quantify the antitumor effects of different treatments as previously described: tumor volume, measured throughout the experiment; tumor weight, measured at the end of the experiment; tumor progression, defined as an increase of greater than 50% of tumor volume with respect to baseline; and time to progression (TTP), defined as the time until tumor progression was observed from baseline. Tumor size was measured with calipers and the TTP of a single tumor was calculated. TTP data were used to generate Kaplan-Meier curves for progression. This method of analysis was described previously, and may reduce both inter-subject variability resulting from differences in engraftment efficacy as well as intra-subject variability in response.
(§3) In vivo drug combination studies were evaluated using CalcuSyn. For CI calculations of dual administration, the values of % cell kill (%CK) for a fixed tumor volume were determined by the log CK (LCK). LCK was calculated as LCK = (T − C) / (3.32 × Td), where Td represented the mean control group doubling time required to reach a fixed tumor volume, expressed in days. T and C were the mean times in days required to reach the same fixed tumor volume in the treated group and the control group, respectively. CK was calculated as %CK = [1 − (1 − 10LCK)] × 100. Tumor growth delay (TGD) was calculated as %TGD = [(T − C) / C] × 100, where T and C were the same values as those reported by Bruzzese et al..

[3] = test system: T98G xenografts; assay: as above; type: in vivo, female CD1-nu/nu mice; settings: T98G xenografts; day 35; VSR 10 mg/kg q 5 d for 5 wk IV; TMZ 16 mg/kg 5 consecutive days; RT single 4 Gy
Method: as §1, §2, §3

[4] = test system: U251 xenografts; assay: as above; type: in vivo, female CD1-nu/nu mice; settings: U251 xenografts; day 35; VSR 10 mg/kg q 5 d for 5 wk IV; TMZ 16 mg/kg 5 consecutive days; RT single 4 Gy
Method: as §1, §2, §3

[5] = test system: U87MG, U251, and T98G cells; assay: Autophagy: acidic vesicular organelle (AVO) staining; type: cell-based, human; settings: RT 4 Gy, 24 hours
Excerpt: As a marker of autophagy we evaluated the presence of AVOs after staining of cell cultures with LysoTracker® Red DND-99 kit (Life Technologies Italia, Monza, Italy) according to the manufacturer’s instructions. The intensity of the red fluorescence is proportional to the degree of acidity. The percentage of autophagic cells was quantified with the Tali® Image-Based Cytometer (Life Technologies) measuring fluorescence emission at 590 nm with fluorescence excitation at 577 nm. The results were expressed as the percentage of cell AVOs stained in controls and in treated cultures.

Which results are given for `Cn1nnc2c(C(N)=O)ncn2c1=O` [temozolomide]?
Disease-free Survival HR (95% CI) ([1]; TMZ vs VSR): 2.0 (0.9–5.5); Overall Survival HR (95% CI) ([1]; TMZ vs VSR): 3.0 (1.0–8.8); mean time of recurrence (DFS) ± SE ([1]; orthotopic U251-luciferase, treated for 35 days starting 5 days after cell injection): 68.3 ± 5.4 days; final tumor weight reduction compared with vehicle controls [2]: 53%; final tumor weight reduction compared with vehicle controls [3]: 25%; final tumor weight reduction compared with vehicle controls [4]: 54%

With `Cn1cnc(N)c2ncnc1-2` [3-methyladenine] as the compound, how does the “RT-induced AVO staining” value ([5]; 5 μM) read?
The value was “reduced”.

`COC(=O)C[C@H](NC(=O)[C@H](C)NC(=O)[C@@H](NC(=O)OCc1ccccc1)C(C)C)C(=O)CF` [z-Val-Ala-Asp(Ome)-fluoromethyl ketone] (Cbz-Val-Ala-Asp(OMe)-CH2F) was tested. Which “RT-induced AVO staining” value ([5]; 10 μM) did it give?
Its value is “further increased”.
